This note sets out measurements from PMC12299903 (Pharmaceuticals, 2025).

Data set [1] has as its system Streptococcus agalactiae (ATCC 29313). The experiment in a line: Antibacterial assay, MIC (broth microdilution, resazurin). In kind it is cell-based. The following applies: Mueller-Hinton broth, CLSI M07-A9, 1:2 serial dilution from 128.5 μM, 37 °C 20 h, resazurin read-out, triplicate; conjugates dosed as peptide concentration. As for the experimental part: (§1) The peptide Lun-1 and the peptide-conjugated nanoparticles (Lun-EN and Lun-EC) were investigated against […] bacterial strains—Pseudomonas aeruginosa, Staphylococcus aureus, Acinetobacter, Escherichia coli, and Streptococcus agalactiae, all from American Type Culture Collection (Manassas, VA, USA). Details can be found in the SM. […]
(§2) phase at 35 °C and subsequently transferred to Mueller-Hinton broth according to the guidelines established by the M07 -A9 CLSI. Methods for the dilution antimicrobial susceptibility tests for b acteria that grow aerobically were from the Approved Standard—Ninth Edition. CLSI document M07 -A9. Wayne, PA: Clinical and Laboratory Standards Institute; 2012. Bacterial suspensions were adjusted to the turbidity equivalent to 0.5 McFarland standard ([…]), by spectrophotometric measurement at 625 nm (Bel Photonics S2000 UV, São Paulo, Brazil).
(§3) The suspension was then diluted 1:20, and 50 μL aliquots were distributed into 96-well flat-bottom microplates (Nümbrecht, Germany).
(§4) Chloramphenicol (30 μg·mL⁻¹; 92.8 μM) was used as standard drug and served as positive control for growth bacterial inhibition. Wells containing 50 μL of bacterial inoculum and 50 μL of sterile culture medium were used as negative controls. Free peptides were tested at a maximum concentration of 128.5 μM and diluted via serial dilution (1:2) up to seven times in Mueller–Hinton broth. For the nanoparticle– peptide conjugations concentration s were adjusted according to the degree of functionalization to ensure accurate dosing of the active peptide component.
(§5) Plates were incubated at 37 °C for 20 hours. After incubation, 30 μL of a 0.01% (w/v) resazurin solution (10-oxido -7 -oxophenoxazin-10 -ium -3 -olate; Sigma -Aldrich, St. Louis, MO, USA) was added to each well. Plates were protected from light and incubated for an additional 4 hours to allow colorimetric development. The tests whose bacteria did not develop a pink color after incubation (maintaining the blue coloration) were […]
Background: Dilution methods test growth across graded concentrations, often in twofold steps.

In data set [2] the test system is Escherichia coli (ATCC25922). The description is as above. The class given is cell-based. The following applies: Mueller-Hinton broth, CLSI M07-A9, 1:2 serial dilution from 128.5 μM, 37 °C 20 h, resazurin read-out, triplicate; conjugates dosed as peptide concentration. As to the method:
as §1, §2, §3, §4, §5

For data set [3], the system named is Staphylococcus aureus (ATCC29213). The data set is described as above. The class given is cell-based. The following applies: Mueller-Hinton broth, CLSI M07-A9, 1:2 serial dilution from 128.5 μM, 37 °C 20 h, resazurin read-out, triplicate; conjugates dosed as peptide concentration. As to the method:
as §1, §2, §3, §4, §5
For orientation: Alamar Blue is a resazurin reagent that responds to reducing activity.

In data set [4] the test system is Acinetobacter (ATCC17978). The description is as above. The class given is cell-based. The following applies: Mueller-Hinton broth, CLSI M07-A9, 1:2 serial dilution from 128.5 μM, 37 °C 20 h, resazurin read-out, triplicate; conjugates dosed as peptide concentration. As for the experimental part: as §1, §2, §3, §4, §5
Data set [5] concerns Pseudomonas aeruginosa (ATCC27853). The data set is described as above. In kind it is cell-based. The following applies: Mueller-Hinton broth, CLSI M07-A9, 1:2 serial dilution from 128.5 μM, 37 °C 20 h, resazurin read-out, triplicate; conjugates dosed as peptide concentration. As for the experimental part:
as §1, §2, §3, §4, §5

For data set [6], the system named is trypsin. The experiment in a line: Proteolytic degradation by trypsin (HPLC). The following applies: trypsin 1:50 (w/w), 100 µM peptide, 20 mM Tris-HCl pH 8.0, 37 °C, time points 1 min to 4 h; for time to complete degradation by trypsin: HPLC-UV. The class given is in vitro ADME. As for the experimental part:
Lunatin–AAAE and EAAA–lunatin and their nanoparticle-functionalized counterparts (NP-Lun-EN and NP-Lun-EC) were suspended in 20 mM Tris-HCl buffer (pH 8.0) at a final peptide concentration of 100 µM and exposed to enzymatic digestion with trypsin at 37 °C, using an enzyme-to-substrate ratio of 1:50 (w/w) in a final volume of 1000 µL. Incubation was performed using an AccuBlock™ Digital Dry Bath (Ciencor),. Aliquots of 200 µL were withdrawn at different time points (1 min, 5 min, 10 min, 30 min, 1 h, 2 h, 3 h, and 4 h), and enzymatic activity was quenched by adding 40 µL of 1 M HCl. Samples were centrifugated and supernatant filtered in whatman® alumina anodisc filter discs 0.02 μm pore size, previously injected in a high-performance liquid chromatography system (Varian® ProStar 315 system equipped with a UV detector), using an Agilent AdvanceBio Peptide Mapping column (4.6 × 150 mm), and 50 µL injection loop.

Data set [7] deals with trypsin. The experiment in a line: trypsin in 20 mM Tris-HCl buffer (pH 8.0). The following applies: 37 °C, up to 4 h.
Data set [8] in a line: Differential scanning calorimetry of model membranes. The following applies: for Tm of LUVs: 3 mM DMPC:DMPG (3:1) LUVs, 10 mM Tris-HCl pH 7.5, pure LUVs 23.1, triplicate, ± 0.2 °C. As to the method:
The phase transition profile of 1,2-dimyristoyl-sn-glycero-3-phosphocholine and 1,2-dimyristoyl-sn-glycero-3-phosphocholine/1,2-dimyristoyl-sn-glycero-3-phosphoglycerol (DMPC:DMPG. 3:1, mol:mol) at 3 mM was investigated in the absence and presence of Lun-1, NP, NP-Lun-EN, and NP-Lun-EC at different concentrations (Table S1, using a VP-DSC® microcalorimeter (Malvern® Instruments, Malvern, UK). All mixtures of LUVs and peptide–LUVs were prepared immediately prior to the experiments. The samples were pre-degassed and tested against a 10 mM Tris-HCl buffer (pH 7.5) containing 50 mM NaCl in the reference cell. Buffer-only experiments were also performed in all cells for subsequent background subtraction. Each sample underwent three successive heating scans in the temperature range of 10–35 °C at a heating rate of 1.0 °C.min^−1. Data analyses were performed using Microcal Origin® DSC software version 5.0 (GE HealthCare-Microcal®, Amherst, MA, USA), which was employed to subtract the blank and determine the transition temperature (Tm) and transition enthalpy (DtransH) from the gel phase to the liquid crystalline phase.
For orientation: DSC measures the heat that a sample takes up or gives off during a temperature scan.

The next data set in a line: Zeta potential. The class given is physicochemical. The following applies: 0.2 mg·mL^−1 in 10 mM Tris-HCl, pH 8.0, 100 mM NaCl; 25 °C; mean of triplicate ± SD. As for the experimental part: Zeta potential and Hydrodynamic Diameter measurements were performed at room temperature (or 25 °C) on a Zetasizer Nano instrument (Malvern® ZS model BI-900, Worcestershire, UK). A 700 µL Malvern® cuvette (model DTS1061) was used for the analysis. The measurements were conducted, utilizing monochromatic light scattering (10 mW Ne laser, λ = 632.4 nm), with the light intensity measured at a 90° angle. Zeta potential (z) were carried out at 0.2 mg·mL^−1 of NP, NP-OH, NP-NH2, NP-Lun-EN, and NP-Lun-EC dispersed in a 10 mM Tris-HCl buffer, pH 8.0, containing 100 mM NaCl.

The nature of data set [9]: Circular dichroism, secondary structure content. In kind it is physicochemical. The following applies: 10 mM Tris-HCl, 100 mM NaCl, pH 8.5, 25 µM peptide, 25 °C. As to the method: Circular dichroism spectra were recorded using a JASCO J-815 spectrometer (Easton, MD, USA) equipped with a Peltier Jasco model PTC-423 L temperature control system. Spectra were obtained using a quartz cuvette with a 1 cm optical path at a temperature of 25 °C, covering a wavelength range from 190 to 260 nm with eight consecutive scans per sample. The scan speed was set at 100 nm/min and the response time was 4 s. The bandwidth was 1 nm, and ellipticity readings were taken every 0.2 nm. The Lun-1 (25 µM), NP (0.155 mg·mL^−1), NP-Lun-EN (0.17 mg·mL^−1–25 µM of peptide concentration), and NP-Lun-EC (0.18 mg·mL^−1–25 µM of peptide concentration) samples were (corresponding to 25 µM of peptide in NP-Lun-EN and NP-Lun-EC) suspended in 10 mM Tris-HCl buffer solution at pH 8.5 containing 100 mM NaCl or in 200 µM POPC:POPG (3:1, mol:mol) LUVs suspended in the same buffer solution. Data processing and deconvolution calculations to obtain the contents of secondary structures were carried out using the CDpro® program.

In brackets after ≈: the same amount, converted by molar mass. Entries after “also recorded” stand apart in the source; their conditions may differ. Where a SMILES comes first, the peptide text is derived from it. Where no end group is shown, it is not given here.

What is called MIC is the lowest concentration that inhibits growth of the organism. `CC[C@H](C)[C@H](NC(=O)[C@@H](N)Cc1ccccc1)C(=O)NCC(=O)NCC(=O)N[C@@H](CC(C)C)C(=O)N[C@@H](CC(C)C)C(=O)N[C@@H](CCCCN)C(=O)N[C@H](C(=O)N[C@@H](CC(C)C)C(=O)N[C@H](C(=O)N[C@@H](CO)C(=O)N[C@@H](Cc1ccccc1)C(=O)N[C@@H](Cc1ccccc1)C(N)=O)[C@@H](C)O)[C@@H](C)O` [Lun-1, lunatin-1] (H-FIGGLLKTLTSFF-NH2): the MIC in data set [1] stood at 16.0 µM (≈ 23.1 µg/mL); in [2], 64.2 µM (≈ 92.6 µg/mL); in data set [3], 8.0 µM (≈ 11.5 µg/mL); in [4], 32.1 µM (≈ 46.3 µg/mL); in [5], 32.1 µM (≈ 46.3 µg/mL).
As for `CC[C@H](C)[C@H](NC(=O)[C@@H](N)Cc1ccccc1)C(=O)NCC(=O)NCC(=O)N[C@@H](CC(C)C)C(=O)N[C@@H](CC(C)C)C(=O)N[C@@H](CCCCN)C(=O)N[C@H](C(=O)N[C@@H](CC(C)C)C(=O)N[C@H](C(=O)N[C@@H](CO)C(=O)N[C@@H](Cc1ccccc1)C(=O)N[C@@H](Cc1ccccc1)C(=O)N[C@@H](C)C(=O)N[C@@H](C)C(=O)N[C@@H](C)C(=O)N[C@@H](CCC(=O)O)C(N)=O)[C@@H](C)O)[C@@H](C)O` [Lun-EC] (H-FIGGLLKTLTSFFAAAE-NH2), the “time to complete degradation by trypsin” value in the data set on trypsin [6] is on record as 10 min.
Still for that read-out and setting: under `CC[C@H](C)[C@H](NC(=O)[C@H](Cc1ccccc1)NC(=O)[C@H](C)NC(=O)[C@H](C)NC(=O)[C@H](C)NC(=O)[C@@H](N)CCC(=O)O)C(=O)NCC(=O)NCC(=O)N[C@@H](CC(C)C)C(=O)N[C@@H](CC(C)C)C(=O)N[C@@H](CCCCN)C(=O)N[C@H](C(=O)N[C@@H](CC(C)C)C(=O)N[C@H](C(=O)N[C@@H](CO)C(=O)N[C@@H](Cc1ccccc1)C(=O)N[C@@H](Cc1ccccc1)C(N)=O)[C@@H](C)O)[C@@H](C)O` [Lun-EN] (H-EAAAFIGGLLKTLTSFF-NH2) stands 10 min.
For the compound EAAAFIGGLLKTLTSFF-NH2 [Lun-EN], the fragment found entry in the data set with trypsin [7] is listed as “TLTSFF, 1 min; also recorded: EAAAFIGGLLK, 1 min”.
On to EAAAFIGGLLKTLTSFF-NH2 [NP-Lun-EN], for which, in the data set on trypsin [7], the fragment found result is recorded as “TLTSFF, 2 h”.
Still for that read-out and setting: under FIGGLLKTLTSFFAAAE-NH2 [Lun-EC] stands “FIGGLLK, 1 min; also recorded: TLTSFFAAAE, 1 min”.
Turning to FIGGLLKTLTSFFAAAE-NH2 [NP-Lun-EC], the fragment found result in the data set with trypsin [7] is listed as “FIGGLLK, 2 h”.
As to Lun-1-AAAECterm-NP [NP-Lun-EC], the “Tm of LUVs” value in [8] (10 µM peptide) was 22.7 °C; in data set [8] (25 µM peptide), 22.0/22.0 °C; in data set [8] (50 µM peptide) it was 21.1 °C; in data set [8] (100 µM peptide), 19.8 °C. The “lowering of transition temperature (DTm)” value in data set [8] (DMPC:DMPG (3:1) LUVs, versus pure LUVs) was found to be 3.3 °C. In “Zeta potential”, the ζ-potential result is listed as “+5.8 ± 0.8 mV”. For the same compound, the “time after which progressive degradation (cleavage fragment peaks) is observed with trypsin” value in the data set on trypsin [6] (HPLC-UV of filtered supernatant) is listed as 2 h. Also, the minimal inhibitory concentration (MIC) came out at 16.0 µM in [1]; 48.0 µM in data set [2]; 16.0 µM in [3]; 40.0 µM in [4]; 32.1 µM in [5]. Besides, the “a-helical percentage (CD deconvolution)” value in data set [9] (in buffer, CDpro) came out at 30%. For the same compound, in [9] (in buffer, CDpro), the “β-sheet percentage (CD deconvolution)” value is listed as 40%. Further, in data set [9] (in presence of 200 µM POPC:POPG (3:1) LUVs), the “α-helix content (CD deconvolution)” value amounted to 55%.
